{"source": "patent US7235588B2", "about": "“Method for reducing hypertension and heart failure” (The Research Foundation of State University of New York, priority 2001, dated 2007)", "key": {"[1]": {"tested_on": "spontaneously hypertensive rats", "assay": "Blood pressure in spontaneously hypertensive rats", "format": "in vivo, rat", "details": "5 micromoles, FIG. 9", "experimental": "Adult spontaneously hypertensive rats, which are genetically predisposed to hypertension, and normotensive rats were anesthetized with pentobarbital sodium (65 mg/kg ip) in preparation for surgery. […] Teflon arterial catheter (ID […]) was inserted into the left femoral artery. The catheter was tunneled under the skin and exited at the nape of the rat's neck and connected to a 26 G needle capped on a port and flushed with 1:3 heparin saline. The rats were housed individually after surgery, and allowed 48 hours to recover from the operation. Systolic and diastolic blood pressure were directly measured using the connection to the port placed in the rat's neck to a manual transducer."}, "angiotensinogen mRNA": {"tested_on": "angiotensinogen mRNA", "assay": "Angiotensinogen mRNA expression in vivo in rat liver (northern blot)", "details": "daily treatment to achieve 5 μM systemically, 10 days", "experimental": "Tyrphostin AG490 was administered to rats in vivo. A subcutaneous pump was surgically placed with a catheter extended intraperitoneally. Rats were daily treated with tyrphostin AG490 to achieve a 5 μM concentration systemically. After 10 days, the animals were euthanized using approved animal protocols and the liver collected to isolate RNA. The isolated RNA was used to perform a northern blot and the nitrocellulose membrane was probed with the rat angiotensinogen cDNA. Loading control was performed using GAPDH as probe."}, "rat hearts [2]": {"tested_on": "rat hearts", "assay": "Myocardial function of spontaneously beating working hearts subjected to ischemia/reperfusion"}, "[3]": {"tested_on": "St-domain/STAT binding activity", "assay": "Electrophoretic gel mobility-shift assay of St-domain/STAT binding in heart nuclear extracts", "set-up": "species or system rat", "details": "hearts, 30 min ischemia/120 min reperfusion", "excerpt": "Nuclear extracts were examined in hearts subjected to global ischemia to determine whether there is enhanced STAT binding activity to the St domain of the angiotensinogen promoter. The nuclear heart extracts were examined by the electrophoretic gel mobility-shift assay that exployed the use of the chemically synthesized oligonucleotide sequence of the St domain. The St-domain DNA probe for protein binding was a double-stranded oligonucleotide containing the sequence 5′-GGGTtcCTGGAAGGG-3′ SEQ. ID NO: 2, and complementary strand 5′-CCCTTCCAGgaACCC-3′ SEQ. ID NO: 3, respectively. These probes were end-labeled by polynucleotide kinase and [γ-^32P]ATP. Binding reaction mixture containing 0.5 ng of labeled DNA (1,000 cpm), 2 μg of poly(dI-C), and 1-12 μg of protein in buffer containing 20 mM Hepes, 3% glycerol, 1.5 mM MgCl2, 1 mM DTT, 2 mM EDTA and 50 mM KCl, pH 7.5 was allowed to incubate at 4° C. for 30 min. The reactions were analyzed by electrophoresis on 8% polyacrylanide gel in 0.375× TBE ([…] Tris borate, pH 8.7 and 1.0 mM EDTA). After electrophoresis, the gels were dried and subjected to autoradiography. […] (FIG. 5B). The activation of STATs and the consequent binding to the St-domain in the angiotensinogen promoter accounts for the increase in transcription of angiotensinogen mRNA. […]"}, "rat hearts [4]": {"tested_on": "rat hearts", "assay": "Myocardial infarct size (triphenyl tetrazolium staining) after ischemia/reperfusion", "details": "FIG. 4B", "experimental": "To gain insight into the physiological basis for cardioprotection afforded by tyrphostin AG490, the extent of cardiomyocyte infarct size and apoptosis were measured. On termination of treatment with tyrphostin AG490, hearts were immersed in 1% triphenyl tetrazolium solution in phosphate buffer (Na2HPO4 88 mmol/l, NaH2PO4 1.8 mmol/l) for 10 min. at 37° C. and stored at −70° C. for processing. Frozen hearts (ventricular tissue) were sliced transversely in a plane perpendicular to the apicobasal axis into 0.5 mm thick sections, blotted dry, placed between microscope slides, and scanned on a Hewlett-Packard Scanjet 5 p single-pass flatbed scanner. With the NIH 1.61 image processing software, each digitized image was subjected to equivalent degrees of background subtraction, brightness, and contrast enhancement for improved clarity and distinctness. Risk (equivalent to total left ventricular muscle mass) and infarct zones of each slice were traced, and the respective areas were calculated in terms of pixels. The weight of each slice was then recorded to facilitate the expression of total and infarct masses of each slice in grams. The risk and infarct volumes of each slice in cubic centimeters were then calculated on the basis of slice weight to correct for any errors due to nonuniformity of heart slice thickness. […]"}, "[5]": {"details": "first 60 min of reperfusion, treated groups (5 and 50 μmol/L)"}}, "note": "Entries after “also recorded” stand apart in the source; their conditions may differ."}
{"smiles": "N#C/C(=C\\c1ccc(O)c(O)c1)C(=O)NCc1ccccc1", "note": "[tyrphostin AG490]", "values": [{"measurement": "blood pressure", "setting": "[1]", "result": "effective in lowering blood pressure to normal levels; also recorded: attenuation of hypertension"}, {"measurement": "expression of angiotensinogen gene product mRNA", "setting": "angiotensinogen mRNA", "result": "abolished the expression of angiotensinogen gene product mRNA; also recorded: attenuation of angiotensinogen mRNA expression"}, {"measurement": "cardioprotection (developed pressure and dP/dt)", "setting": "rat hearts [2]; 5 μmol/L", "result": "able to provide cardioprotection to approximately the same degree"}, {"measurement": "Developed pressure", "setting": "rat hearts [2]; 5 μmol/L, 60 min of reperfusion (R-60)", "result": "86±2.5", "unit": "mm Hg"}, {"measurement": "Developed pressure", "setting": "rat hearts [2]; 5 μmol/L, 90 min of reperfusion (R-90)", "result": "69±5", "unit": "mm HG"}, {"measurement": "Developed pressure", "setting": "rat hearts [2]; 5 μmol/L, 120 min of reperfusion (R-120)", "result": "60.85±4", "unit": "mm Hg"}, {"measurement": "dp/dt", "setting": "rat hearts [2]; 5 μmol/L, R-30", "result": "3818±49.46"}, {"measurement": "dp/dt", "setting": "rat hearts [2]; 5 μmol/L, R-60", "result": "3362±53.14"}, {"measurement": "dp/dt", "setting": "rat hearts [2]; 5 μmol/L, R-90", "result": "2840±88"}, {"measurement": "dp/dt", "setting": "rat hearts [2]; 5 μmol/L, R-120", "result": "2552±58.9"}, {"measurement": "baseline value for dP/dt", "setting": "rat hearts [2]; 50 μmol/L", "result": "increased slightly"}, {"measurement": "cardioprotection (developed pressure and dP/dt)", "setting": "rat hearts [2]; 50 μmol/L", "result": "able to provide cardioprotection to approximately the same degree"}, {"measurement": "Developed pressure", "setting": "rat hearts [2]; 50 μmol/L, 60 min of reperfusion (R-60)", "result": "86±4.8", "unit": "mm Hg"}, {"measurement": "Developed pressure", "setting": "rat hearts [2]; 50 μmol/L, 90 min of reperfusion (R-90)", "result": "72.7±5.7", "unit": "mm HG"}, {"measurement": "Developed pressure", "setting": "rat hearts [2]; 50 μmol/L, 120 min of reperfusion (R-120)", "result": "53.75±7", "unit": "mm Hg"}, {"measurement": "dp/dt", "setting": "rat hearts [2]; 50 μmol/L, R-30", "result": "4156±238"}, {"measurement": "dp/dt", "setting": "rat hearts [2]; 50 μmol/L, R-60", "result": "3840±140"}, {"measurement": "dp/dt", "setting": "rat hearts [2]; 50 μmol/L, R-90", "result": "3194.7±228"}, {"measurement": "dp/dt", "setting": "rat hearts [2]; 50 μmol/L, R-120", "result": "2626±269"}, {"measurement": "dP/dt and developed pressure versus untreated group", "setting": "rat hearts [2]; all treated groups (5 and 50 μmol/L)", "result": "significantly higher"}, {"measurement": "Developed pressure", "setting": "rat hearts [2]; [5]", "result": "minimally lowered"}, {"measurement": "dP/dt value", "setting": "rat hearts [2]; [5]", "result": "not lowered"}, {"measurement": "St-domain/STAT binding activity (STAT/DNA complex formation)", "setting": "[3]", "result": "total loss of STAT/DNA complex formation; also recorded: reduction of St-domain/STAT binding activity"}, {"measurement": "myocardial infarct size", "setting": "rat hearts [4]", "result": "reduced myocardial infarct size; also recorded: reduction of infarct size"}]}
